Results published in patent publication US20230075138A1 (priority 2021, published 2023).

Key:
COVID-19 [1] = test: IL-6 level / ICU duration quadrants of COVID-19 ICU patients after therapeutic administration; type: in vivo, human; details: for patient count in quadrant Q2 / proportion of patients in quadrant Q2: Q2: ICU ≥15 days or deceased and IL-6 <10 pg/mL; for patients in Q3: Q3: ICU <15 d and IL-6 ≥10 pg/mL; for Proportion of Group − Proportion of Other: cohort vs patients not taking the drug class
Procedure: Four categories of patient IL-6 level/ICU stay length were defined (i.e. the 4 quadrants described in Table 2). For each drug class with at least 10 patients, and for each quadrant with nonzero number of patients, the proportion of patients in the quadrant out of those taking a drug from the class were compared to the proportion of patients in the quadrant out of those not taking a drug from the class. Fisher exact test was performed to compute p-values on these proportion comparisons. A Benjamini-Hochberg adjustment was also applied to these p-values for multiple hypotheses.
Because only 10 patients met the aforementioned criteria, 10 additional COVID positive, ICU patients who only had IL-6 measured post-corticosteroid administration were also examined. Their IL-6 levels were plotted against the duration of ICU stay (see FIG. 3). Similarly, patients who received tocilizumab (n=5), azithromycin (n=49), hydroxychloroquine (n=10), and antivirals (lopinavir-ritonavir and ribavirin, n=4) were also examined. Patients were grouped into the following four categories based on IL-6 level, ICU status, and mortality: • (Q1) ICU<15 d and IL-6<10 pg/mL, • (Q2) ICU≥15 d or deceased and IL-6<10 pg/mL, • (Q3) ICU<15 d and IL-6≥10 pg/mL, and • (Q4) ICU≥15 d or deceased and IL-6≥10 pg/mL. […] As a corollary, corticosteroids have fewer patients (30%, n=20) in Q3 compared to tocilizumab (80%, n=5), azithromycin (61%, n=49), and hydroxychloroquine (60%, n=10). (See Table 2)

COVID-19 [2] = test: Kaplan-Meier survival of COVID-19 positive patients hospitalized at the Mayo Clinic, by drug cohort; type: in vivo, human
[3] = Q1: ICU <15 days and IL-6 <10 pg/mL
[4] = Q3: ICU <15 days and IL-6 ≥10 pg/mL
[5] = Q4: ICU ≥15 days or deceased and IL-6 ≥10 pg/mL
[6] = all hospitalized COVID-19 patients
[7] = COVID-19 patients requiring ICU admission

Row | Compound | patient count in quadrant Q1 (COVID-19 [1]; [3]) | patient count in quadrant Q2 (COVID-19 [1]) | proportion of patients in quadrant Q2 (COVID-19 [1]) | patients in Q3 (COVID-19 [1]) [%] | patient count in quadrant Q3 (COVID-19 [1]; [4]) | patient count in quadrant Q4 (COVID-19 [1]; [5]) | survival rate at 60 days post-diagnosis (COVID-19 [2]; [6]) [%] | survival rate at 60 days post-diagnosis (COVID-19 [2]; [7]) [%] | other results
1 | tocilizumab | 0 | 0 | (0) | 80 | 4 | 1 | – | – | proportion of patients in quadrant Q1 (COVID-19 [1]; [3]): (0); proportion of patients in quadrant Q3 (COVID-19 [1]; [4]): (0.8); proportion of patients in quadrant Q4 (COVID-19 [1]; [5]): (0.2); survival 60 days post diagnosis (in words) (COVID-19 [2]; hospitalized COVID-19 patients): all 11 hospitalized patients receiving tocilizumab survived
2 | C[C@]12CCC(=O)C=C1CC[C@@H]1[C@@H]2[C@@H](O)C[C@@]2(C)[C@H]1CC[C@]2(O)C(=O)CO [hydrocortisone] | – | – | – | – | – | – | 79 | – | –
3 | C[C@]12C=CC(=O)C=C1CC[C@@H]1[C@@H]2C(=O)C[C@@]2(C)[C@H]1CC[C@]2(O)C(=O)CO [prednisone] | – | – | – | – | – | – | 92 | – | –
4 | C[C@H]1C[C@@H]2[C@H]([C@@H](O)C[C@@]3(C)[C@H]2CC[C@]3(O)C(=O)CO)[C@@]2(C)C=CC(=O)C=C12 [methylprednisolone] | – | – | – | – | – | – | – | – | survival rate at 60 days post-diagnosis (COVID-19 [2]; human, in vivo): 77%
5 | CCN(CCO)CCCC(C)Nc1ccnc2cc(Cl)ccc12 (stereo not drawn) [hydroxychloroquine] | 2 | 0 | (0) | 60 | 6 | 2 | – | 100 | Proportion of Group − Proportion of Other (COVID-19 [1]; quadrant Q1): 0.08; Proportion of Group − Proportion of Other (COVID-19 [1]; quadrant Q3): 0.05; Proportion of Group − Proportion of Other (COVID-19 [1]; quadrant Q4): −0.13
6 | C[C@@H]1C[C@H]2[C@@H]3CCC4=CC(=O)C=C[C@]4(C)[C@@]3(F)[C@@H](O)C[C@]2(C)[C@@]1(O)C(=O)CO [dexamethasone] | – | – | – | – | – | – | 90 | 72 | –
7 | CC[C@H]1OC(=O)[C@H](C)[C@@H](O[C@H]2C[C@@](C)(OC)[C@@H](O)[C@H](C)O2)[C@H](C)[C@@H](O[C@@H]2O[C@H](C)C[C@H](N(C)C)[C@H]2O)[C@](C)(O)C[C@@H](C)CN(C)[C@H](C)[C@@H](O)[C@]1(C)O [azithromycin] | 4 | 0 | (0) | 61 | 30 | 15 | 93 | 92 | Proportion of Group − Proportion of Other (COVID-19 [1]; quadrant Q1): −0.10; Proportion of Group − Proportion of Other (COVID-19 [1]; quadrant Q3): 0.17; Proportion of Group − Proportion of Other (COVID-19 [1]; quadrant Q4): −0.07
